The test system of data set [1] is U-373 cells. The data set can be described thus: Acetylation of sirtuin targets by Western blot, U-373. Format: cell-based, human. To be noted: U-373, 5 and 50 µM, 8 h. The method, then: (§1) Figure 5 Effect of eurochevalierine on the acetylation status of sirtuin targets. SK-MEL-28, U-373, and A-549 cells were treated with 5 and 50 µM eurochevalierine (EU) for 8 h. Acetylation of histone H4 (AcH4), histone H3 at lysine 56 (AcH3K56), and α-tubulin (Ac α-tubulin) was analyzed via Western blot. β-actin and histone H1 were used as loading controls for the analysis of total and acid extracts, respectively. SAHA (S, 1 µM) was used as a reference HDAC inhibitor. Blots are representative of three independent experiments.
(§2) Total proteins were extracted using the MPER® reagent (Thermo-scientific, Erembodegem-Aalst, Belgium) supplemented by 1× protease inhibitor cocktail (Complete EDTA-free, Roche, Prophac, Luxembourg, Luxembourg) according to manufacturer’s instructions. Histones were extracted as previously described. Western blots were carried out as previously reported.
(§3) Corresponding secondary antibodies were from Santa Cruz Biotechnology.
A general note: Immunoblotting shows a protein as a band on a membrane.

In data set [2] the test system is SK-MEL-28 cells. The data set can be described thus: Acetylation of sirtuin targets by Western blot, SK-MEL-28. To be noted: SK-MEL-28, 5 and 50 µM, 8 h. The class given is cell-based, human. The method, then:
as §1, §2, §3

In data set [3] the target is T1, SIRT2 (Homo sapiens, UniProt Q8IXJ6).
T1 sequence (Q8IXJ6 1-389): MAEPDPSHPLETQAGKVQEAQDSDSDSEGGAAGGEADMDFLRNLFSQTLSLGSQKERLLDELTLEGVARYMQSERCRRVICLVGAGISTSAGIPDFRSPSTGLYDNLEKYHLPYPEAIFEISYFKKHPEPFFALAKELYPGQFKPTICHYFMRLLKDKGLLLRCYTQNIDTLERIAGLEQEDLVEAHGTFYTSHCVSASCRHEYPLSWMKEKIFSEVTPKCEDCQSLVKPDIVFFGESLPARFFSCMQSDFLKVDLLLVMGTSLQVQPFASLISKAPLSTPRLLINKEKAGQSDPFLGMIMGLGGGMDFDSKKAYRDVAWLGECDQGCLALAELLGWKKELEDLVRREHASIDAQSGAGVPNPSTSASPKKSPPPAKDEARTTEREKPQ
Description: In vitro SIRT2 activity assay. To be noted: IC50 SIRT2, mean ± SD of three independent experiments.

Data set [4] concerns PBMCs from healthy donors. The data set can be described thus: Viability of PBMCs from healthy donors (Trypan Blue exclusion). Format: cell-based. To be noted: up to 48 h, up to 100 µM. The method, then: The viability of PBMCs from healthy donors was assessed after 24 and 48 h of treatment at the indicated concentration of eurochevalierine. Results correspond to mean ± SD of three independent experiments.
PBMCs were isolated as previously reported.
PBMCs and CD34^+ cells were processed through a semi-automated image-based cell analyzer (Cedex XS Innovatis, Roche, Luxembourg), which provides information about cell concentration and viability based on the Trypan Blue exclusion method.

The target in data set [5] is T2, SIRT3 (Homo sapiens, UniProt Q9NTG7).
T2 sequence (Q9NTG7 1-399): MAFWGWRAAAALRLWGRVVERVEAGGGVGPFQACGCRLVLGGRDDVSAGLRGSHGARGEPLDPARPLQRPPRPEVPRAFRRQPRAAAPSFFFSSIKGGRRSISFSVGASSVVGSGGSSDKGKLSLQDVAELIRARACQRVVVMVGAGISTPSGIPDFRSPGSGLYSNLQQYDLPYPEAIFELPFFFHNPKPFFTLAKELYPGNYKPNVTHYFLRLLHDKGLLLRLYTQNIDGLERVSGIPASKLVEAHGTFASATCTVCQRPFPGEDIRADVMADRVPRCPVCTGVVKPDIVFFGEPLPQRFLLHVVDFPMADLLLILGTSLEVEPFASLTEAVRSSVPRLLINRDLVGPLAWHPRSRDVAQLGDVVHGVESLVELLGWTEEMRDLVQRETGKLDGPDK
The data set can be described thus: In vitro SIRT3 activity assay. Format: biochemical.

In data set [6] the target is T3, SIRT1 (Homo sapiens, UniProt Q96EB6).
T3 sequence (Q96EB6 1-747): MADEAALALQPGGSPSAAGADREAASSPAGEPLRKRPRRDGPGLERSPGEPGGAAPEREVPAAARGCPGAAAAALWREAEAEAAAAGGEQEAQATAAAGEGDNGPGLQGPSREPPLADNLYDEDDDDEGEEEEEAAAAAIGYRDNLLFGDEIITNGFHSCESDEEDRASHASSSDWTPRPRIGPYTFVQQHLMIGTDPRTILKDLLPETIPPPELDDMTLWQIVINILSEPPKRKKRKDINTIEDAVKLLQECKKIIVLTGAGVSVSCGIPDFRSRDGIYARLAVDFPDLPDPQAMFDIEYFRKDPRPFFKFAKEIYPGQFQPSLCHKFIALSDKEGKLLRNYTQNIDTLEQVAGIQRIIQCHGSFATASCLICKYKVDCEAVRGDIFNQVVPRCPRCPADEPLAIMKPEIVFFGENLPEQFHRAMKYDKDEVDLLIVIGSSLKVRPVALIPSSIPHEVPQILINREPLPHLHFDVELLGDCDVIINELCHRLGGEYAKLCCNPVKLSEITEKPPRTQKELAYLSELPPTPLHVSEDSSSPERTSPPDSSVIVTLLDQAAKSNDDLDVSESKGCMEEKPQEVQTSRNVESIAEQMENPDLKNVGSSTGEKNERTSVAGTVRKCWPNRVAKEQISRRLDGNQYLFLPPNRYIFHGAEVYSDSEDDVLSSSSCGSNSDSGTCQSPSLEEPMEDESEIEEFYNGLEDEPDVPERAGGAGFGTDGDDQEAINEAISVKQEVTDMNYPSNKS
The data set can be described thus: In vitro SIRT1 activity assay. To be noted: IC50 SIRT1, mean ± SD of three independent experiments.

For data set [7], the system named is B16-F10 cells. The data set can be described thus: Sub-G1 fraction by PI flow cytometry, B16-F10. The class given is cell-based, murine. The conditions noted are these: B16-F10, 50 µM, 72 h. For orientation: Flow cytometry measures light scatter and fluorescence of single cells or particles in a stream.
Data set [8] concerns A-549 cells. The data set can be described thus: Acetylation of sirtuin targets by Western blot, A-549. The class given is cell-based, human. The conditions noted are these: A-549, 5 and 50 µM, 8 h. The method, then: as §1, §2, §3
Data set [9] addresses HDAC2 (Homo sapiens, UniProt Q92769). The data set can be described thus: Selective in vitro HDAC activity assay, recombinant HDAC2. To be noted: 100 µM. The class given is biochemical. The method, then: (§4) (a) In vitro total HDAC activity was evaluated using K-562 nuclear extracts in the presence of various concentrations of eurochevalierine. (b) Selective in vitro HDAC activity assays were carried out using selected recombinant HDAC proteins in the presence of various concentrations of eurochevalierine. Results are reported as percent of DMSO vehicle control and expressed as the mean ± SD of three independent experiments. * and ** indicate p < 0.05 and p < 0.01 versus untreated cells, respectively.

The target of data set [10] is HDAC3 (Homo sapiens, UniProt O15379). The data set can be described thus: Selective in vitro HDAC activity assay, recombinant HDAC3. The conditions noted are these: 100 µM. The class given is biochemical. The method, then: as §4

Structures are written as SMILES. Values joined by “and” are separate entries in the source; they are usually repeats but may differ in a detail not shown here. Equal entries are not always repeated.

The IC50 is the concentration that gives 50% inhibition. The low end stands for greater potency, the high end for weaker potency.

HDAC2, sequence (Q92769 whole entry): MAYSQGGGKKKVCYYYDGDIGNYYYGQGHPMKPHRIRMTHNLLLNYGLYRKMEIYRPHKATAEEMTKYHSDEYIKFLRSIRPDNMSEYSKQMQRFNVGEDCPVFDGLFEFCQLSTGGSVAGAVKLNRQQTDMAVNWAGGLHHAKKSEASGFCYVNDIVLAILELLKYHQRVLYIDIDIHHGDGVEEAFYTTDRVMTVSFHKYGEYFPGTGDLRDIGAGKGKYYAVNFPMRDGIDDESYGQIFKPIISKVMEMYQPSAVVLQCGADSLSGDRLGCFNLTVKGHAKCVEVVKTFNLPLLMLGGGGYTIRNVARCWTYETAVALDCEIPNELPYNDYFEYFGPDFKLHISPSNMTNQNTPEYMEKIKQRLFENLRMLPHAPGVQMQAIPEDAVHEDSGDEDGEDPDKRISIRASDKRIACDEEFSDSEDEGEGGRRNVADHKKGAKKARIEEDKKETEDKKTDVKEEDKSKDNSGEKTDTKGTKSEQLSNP
HDAC3, sequence (O15379 whole entry): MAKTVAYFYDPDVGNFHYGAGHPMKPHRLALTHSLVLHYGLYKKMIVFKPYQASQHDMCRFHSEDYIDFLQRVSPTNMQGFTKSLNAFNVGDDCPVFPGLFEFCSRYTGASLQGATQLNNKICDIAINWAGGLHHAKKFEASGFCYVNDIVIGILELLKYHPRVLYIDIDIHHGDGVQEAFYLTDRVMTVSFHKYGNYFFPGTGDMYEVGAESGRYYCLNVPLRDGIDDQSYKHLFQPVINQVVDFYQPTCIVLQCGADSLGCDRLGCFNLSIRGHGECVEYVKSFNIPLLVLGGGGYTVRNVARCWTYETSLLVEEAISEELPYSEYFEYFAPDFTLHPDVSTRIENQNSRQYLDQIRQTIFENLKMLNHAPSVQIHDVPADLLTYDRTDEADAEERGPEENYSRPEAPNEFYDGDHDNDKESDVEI
HDAC3, sequence (Q9Y618 395-489 partner limits assumed): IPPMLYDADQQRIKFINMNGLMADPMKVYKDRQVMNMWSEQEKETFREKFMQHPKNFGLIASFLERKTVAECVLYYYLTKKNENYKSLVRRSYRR

With `C=C(C)[C@@H]1CC[C@@H](C)[C@@]2(O)[C@@H]1C=C(C)[C@@H](OC(C)=O)[C@@H]2OC(=O)[C@H](CC(=O)c1ccccc1NC)NC=O` [Eurochevalierine, eurochevalierine], the “acetylation of sirtuin targets (AcH4, AcH3K56, Ac α-tubulin)” value in data set [1] was “robust and dose-dependent increase”; in [2], “robust and dose-dependent increase”; in data set [8], “robust and dose-dependent increase”. Besides, the IC50 was 10 µM and ~10 µM and 10.2 µM in data set [3]; more than 100 µM in data set [5] (mean ± SD of three independent experiments); ~10 µM and 9.8 µM in [6]. The “acute toxicity on viability of PBMCs” value in data set [4] is recorded as “does not trigger any acute toxicity”. For the same compound, the “remaining SIRT3 enzymatic activity compared to the control set to 100%” value in [5] (at 100 µM) worked out at 59%. Moreover, the sub-G1 fraction entry in data set [7] is “did not increase the sub-G1 fraction”. The “effect on HDAC2 deacetylase activity” value in data set [9] is listed as “without effect”. The “induction of HDAC3 activity” value in [10] is 1.5 fold.
